Assay [1] relates to relapsed/refractory myeloma patients. Conditions: thalidomide alone; cited from earlier work.
The test system of the next assay is U266B1. Briefly: multiple myeloma cell proliferation, U266B1. The assay is classed as cell-based. To be noted: U266B1, Human multiple myeloma. From the text: (§1) The effect that ezatiostat has on multiple myeloma proliferation is tabulated below (Table 1).
In the next assay the test system is RPMI-8226. Nature of the assay: multiple myeloma cell proliferation, RPMI-8226. To be noted: RPMI-8226, Human multiple myeloma. Format: cell-based.
From the text: as §1

The next assay deals with ARH77. Briefly: multiple myeloma cell proliferation, ARH77. The assay is classed as cell-based. To be noted: ARH-77, ARH77, Human multiple myeloma.
From the text: as §1

In assay [2] the test system is human RPMI8226 multiple myeloma cell. Nature of the assay: combination with melphalan, inhibition of multiple myeloma cell proliferation. The assay is classed as cell-based. Conditions: added together with melphalan; RPMI8226 cells; FIG. 1.

`O=C1CCC(N2C(=O)c3ccccc3C2=O)C(=O)N1` (centres unmarked) [Thalidomide, thalidomide]: the partial response rates entry in assay [1] was “about 30 % of patients”.

With `CCOC(=O)[C@@H](N)CCC(=O)N[C@@H](CSCc1ccccc1)C(=O)N[C@@H](C(=O)OCC)c1ccccc1` [ezatiostat], the IC50 (as a rule, the concentration that inhibits the measured activity by half) in the assay with U266B1 was found to be 860 nM; in the assay with RPMI-8226, 33000 nM; with ARH77, 2230 nM. Besides, the “synergy with melphalan in inhibiting cell proliferation” value in assay [2] is reported as “demonstrated synergy with melphalan”.

Values taken from patent publication US20120251496A1, “EZATIOSTAT FOR TREATING MULTIPLE MYELOMA” (Telik, Inc., priority 2011, published 2012).
